# Assay results published in patent US8680139B2 (Progenra, priority 2009, dated 2014).
# Target: T1, USP7 (Homo sapiens, UniProt Q93009)
# T1 construct: full length human USP7 protein; made in house
# Test: USP7, Ub-PLA2 assay
# Type: biochemical
# Settings: Ub-PLA2 / NBD C6-HPC fluorescence, 30 minute preincubation; read-out: EC50 for inhibition of USP7
# Method in brief: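 Activity read as fluorescence in a Ub-PLA2 format, with percent inhibition calculated within each plate against DMSO (uninhibited) and NEM (background) wells. Vehicle was 100% DMSO.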
# T1 sequence (Q93009 whole entry): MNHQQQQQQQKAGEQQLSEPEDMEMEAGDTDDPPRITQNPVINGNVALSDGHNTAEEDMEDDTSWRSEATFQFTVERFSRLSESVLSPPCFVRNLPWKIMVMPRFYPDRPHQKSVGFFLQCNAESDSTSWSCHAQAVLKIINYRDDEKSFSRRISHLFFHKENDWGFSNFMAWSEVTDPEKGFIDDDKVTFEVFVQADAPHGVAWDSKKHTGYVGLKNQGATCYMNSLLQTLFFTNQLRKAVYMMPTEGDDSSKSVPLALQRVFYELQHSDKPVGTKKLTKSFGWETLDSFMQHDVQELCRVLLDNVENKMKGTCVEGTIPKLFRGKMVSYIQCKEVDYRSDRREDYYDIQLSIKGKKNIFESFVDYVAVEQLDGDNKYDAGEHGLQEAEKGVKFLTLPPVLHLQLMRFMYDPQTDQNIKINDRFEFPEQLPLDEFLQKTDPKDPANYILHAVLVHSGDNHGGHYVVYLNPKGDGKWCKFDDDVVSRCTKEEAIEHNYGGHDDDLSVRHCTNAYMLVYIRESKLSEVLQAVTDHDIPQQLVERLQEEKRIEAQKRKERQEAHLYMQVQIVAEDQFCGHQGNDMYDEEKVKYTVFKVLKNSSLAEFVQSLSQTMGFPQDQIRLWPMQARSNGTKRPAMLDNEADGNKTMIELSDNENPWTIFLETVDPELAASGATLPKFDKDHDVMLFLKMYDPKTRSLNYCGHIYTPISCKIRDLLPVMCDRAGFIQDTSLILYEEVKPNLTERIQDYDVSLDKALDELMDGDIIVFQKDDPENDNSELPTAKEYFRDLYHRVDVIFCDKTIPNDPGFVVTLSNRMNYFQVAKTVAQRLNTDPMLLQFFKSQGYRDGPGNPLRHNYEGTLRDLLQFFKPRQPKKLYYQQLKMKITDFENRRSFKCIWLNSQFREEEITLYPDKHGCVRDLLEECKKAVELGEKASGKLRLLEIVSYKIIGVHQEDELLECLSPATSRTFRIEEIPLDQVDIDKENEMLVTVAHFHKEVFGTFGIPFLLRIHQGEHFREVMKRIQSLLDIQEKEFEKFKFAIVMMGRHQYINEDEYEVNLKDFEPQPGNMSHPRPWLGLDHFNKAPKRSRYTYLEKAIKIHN
row,Structure (SMILES),EC50
1,"CN1CCC(NS(=O)(=O)c2cc([N+](=O)[O-])c(Sc3c(Cl)cncc3Cl)s2)CC1 [Example 246, 5-((3,5-dichloropyridin-4-yl)thio)-N-(1-methylpiperidin-4-yl)-4-nitrothiophene-2-sulfonamide]",1 to 10 µM
2,"O=C(NCC(=O)N1CCC(F)CC1)c1cc([N+](=O)[O-])c(Sc2c(Cl)cncc2Cl)s1 [Example 216, 5-((3,5-dichloropyridin-4-yl)thio)-N-(2-(4-fluoropiperidin-1-yl)-2-oxoethyl)-4-nitrothiophene-2-carboxamide]",1 to 10 µM
3,"O=C(NC1CN2CCC1CC2)c1cc([N+](=O)[O-])c(Sc2c(Cl)cncc2Cl)s1 (stereo not drawn) [Example 202, 5-((3,5-dichloropyridin-4-yl)thio)-4-nitro-N-(quinuclidin-3-yl)thiophene-2-carboxamide]",≤ 1 µM
4,"O=C(NCCc1ccccn1)c1cc([N+](=O)[O-])c(Sc2c(Cl)cncc2Cl)s1 [Example 109, 5-((3,5-dichloropyridin-4-yl)thio)-4-nitro-N-(2-(pyridin-2-yl)ethyl)thiophene-2-carboxamide]",≤ 1 µM
5,"O=C(Nc1cccc2cccnc12)c1cc([N+](=O)[O-])c(Sc2c(Cl)cncc2Cl)s1 [Example 78, 5-((3,5-dichloropyridin-4-yl)thio)-4-nitro-N-(quinolin-8-yl)thiophene-2-carboxamide]",> 10 µM
6,"CC(=O)c1cc([N+](=O)[O-])c(Sc2ccc(C(F)(F)F)cc2)s1 [Example 10, 1-{5-[4-(Trifluoromethyl)phenylsulfanyl]-4-nitro-2-thienyl}ethanone]",1 to 10 µM
7,"COc1ccc(CNC(C)c2cc([N+](=O)[O-])c(Sc3ccc(Cl)cc3Cl)s2)cc1 (stereo not drawn) [Example 30, 1-[5-(2,4-dichlorophenyl)sulfanyl-4-nitro-2-thienyl]-N-[(4-methoxyphenyl)methyl]ethanamine]",> 10 µM
8,"O=C(NCc1ccc(-c2ccccc2)cc1)c1cc([N+](=O)[O-])c(Sc2c(Cl)cncc2Cl)s1 [Example 63, N-([1,1′-biphenyl]-4-ylmethyl)-5-((3,5-dichloropyridin-4-yl)thio)-4-nitrothiophene-2-carboxamide]",1 to 10 µM
9,"C[S+]([O-])CCCNC(=O)c1cc([N+](=O)[O-])c(Sc2c(Cl)cncc2Cl)s1 (stereo not drawn) [Example 244, 5-((3,5-dichloropyridin-4-yl)thio)-N-(3-(methylsulfinyl)propyl)-4-nitrothiophene-2-carboxamide]",1 to 10 µM
10,"COCCN1CC(NC(=O)c2cc([N+](=O)[O-])c(Sc3c(Cl)cncc3Cl)s2)CC1=O (stereo not drawn) [Example 93, 5-((3,5-dichloropyridin-4-yl)thio)-N-(1-(2-methoxyethyl)-5-oxopyrrolidin-3-yl)-4-nitrothiophene-2-carboxamide]",1 to 10 µM

# The remaining lines, values ahead:
row,EC50,Structure (SMILES)
1,≤ 1 µM,"O=C(NCCc1ccc(Br)cc1)c1cc([N+](=O)[O-])c(Sc2c(Cl)cncc2Cl)s1 [Example 105, N-(4-bromophenethyl)-5-((3,5-dichloropyridin-4-yl)thio)-4-nitrothiophene-2-carboxamide]"
2,1 to 10 µM,"COc1cccc(CN(C)C(=O)c2cc([N+](=O)[O-])c(Sc3c(Cl)cncc3Cl)s2)c1 [Example 67, 5-((3,5-dichloropyridin-4-yl)thio)-N-(3-methoxybenzyl)-N-methyl-4-nitrothiophene-2-carboxamide]"
3,1 to 10 µM,CN(C)CCCOc1ccc(NC(=O)c2cc(C#N)c(Sc3c(Cl)cncc3Cl)s2)cc1 [Example 204]
4,≤ 1 µM,"CC(C)(C)OC(=O)Nc1ccc(NC(=O)c2cc([N+](=O)[O-])c(Sc3c(Cl)cncc3Cl)s2)cc1 [Example 234, tert-butyl (4-(5-((3,5-dichloropyridin-4-yl)thio)-4-nitrothiophene-2-carboxamido)phenyl)carbamate]"
5,1 to 10 µM,"O=C(NCCOc1ccccc1)c1cc([N+](=O)[O-])c(Sc2c(Cl)cncc2Cl)s1 [Example 54, 5-((3,5-dichloropyridin-4-yl)thio)-4-nitro-N-(2-phenoxyethyl)thiophene-2-carboxamide]"
